In ChEMBL document CHEMBL3727375, “Antiproliferative 1,2,3-thiadiazole compounds” (2007) one finds growth inhibition (GI), Activity and TGI data, which are given here for two compounds.

In one test the test system is Chorioallantoic membrane. The experiment in a line: Antiangiogenic activity in fertilized chicken egg chorioallantoic membrane assessed as inhibition of blood vessel growth at 50 uM incubated for 2 days by dissecting microscopy relative to control. It is filed as functional, tissue-based. The following applies: Gallus gallus.
Test [1] in a line: Induction of apoptosis in rat IEC-18-13 cells assessed as healthy cells at 5 uM after 24 hrs by mitosensor dye-based fluorescence microscopy (reference value: 75%). It is filed as functional.
A short description of test [2]: Induction of apoptosis in rat IEC-18-13 cells assessed as apoptotic cells at 5 uM after 24 hrs by mitosensor dye-based fluorescence microscopy (reference value: 25%). It is filed as functional.
In the next test the test system is Lewis lung carcinoma. The experiment in a line: Antitumor activity against mouse LLC allografted in ip dosed mouse assessed as tumor growth inhibition administered daily. Format: functional, organism-based.

The source made the active and inactive calls. The calls are words filed in the database; no cut-off is given here.

As for `NC(=O)c1nnsc1Nc1cccc2ccccc12`, in the test with Chorioallantoic membrane, the growth inhibition (GI) is 100%.
On to `NC(=O)c1nnsc1Nc1ccccc1`, for which the Activity in test [1] was 22%; in test [2], 78%. For the same compound, in the test with Lewis lung carcinoma, the TGI result is “Active”.
